Laboratory results published in US9227971B2, “Pyrazolo[1,5-a]pyrimidine compounds as mTOR inhibitors” (Merck Sharp & Dohme Corp., priority 2010, dated 2016).

What was measured:
[1] = tested on: phosphorylated AKT Ser473 (pAKT S473), mTORC2 activity, PC3 cells; test: mTOR target engagement assay, immunofluorescent cell-based, pAKT S473 readout (mTORC2 activity); conditions: Homo sapiens, PC-3, PC3 cells, compound treatment ninety minutes at 37° C.
How it was run: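 After blocking, cells were stained overnight at 4 °C with anti-pAKT S473 antibody, then a fluorescent secondary; inhibition was read as reduced fluorescence intensity.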

[2] = tested on: phosphorylated 4E-BP1 Thr37/46 (p4E-BP1 Thr37/46), mTORC1 activity, PC3 cells; test: mTOR target engagement assay, immunofluorescent cell-based, p4E-BP1 Thr37/46 readout (mTORC1 activity); conditions: Homo sapiens, PC-3, PC3 cells, compound treatment ninety minutes at 37° C.; read-out: p4E-BP1 Thr37/46 IC50
How it was run: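 Seed PC3 cells overnight; treat with compound dilutions for ninety minutes at 37° C; fix with glyoxal and block; stain with anti-p4E-BP1 Thr37/46 overnight at 4° C, then fluorescent secondary; read fluorescence and fit IC50 against DMSO-only controls.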

| Structure (SMILES) | IC50 [1] | IC50 [2] |
| --- | --- | --- |
| CC(=O)c1c([C@@H]2C[C@H]3CC[C@@H](C2)N3C(=O)c2nnc[nH]2)nc2c(-c3cnc4ccc(CO)cc4c3)cnn2c1N [Compound 1.1.126, 1-(5-((1R,3s,5S)-8-(4H-1,2,4-triazole-3-carbonyl)-8-azabicyclo[3.2.1]octan-3-yl)-7-amino-3-(6-(hydroxymethyl)quinolin-3-yl)pyrazolo[1,5-a]pyrimidin-6-yl)ethanone] | 1000 to 10000 nM | 1000 to 10000 nM |
| CC(=O)c1c([C@@H]2C[C@H]3CC[C@@H](C2)N3C(=O)c2nnc[nH]2)nc2c(-c3ccc(-n4cnc(C)c4)nc3)cnn2c1N [Compound 1.1.128, 1-(5-((1R,3s,5S)-8-(4H-1,2,4-triazole-3-carbonyl)-8-azabicyclo[3.2.1]octan-3-yl)-7-amino-3-(6-(4-methyl-1H-imidazol-1-yl)pyridin-3-yl)pyrazolo[1,5-a]pyrimidin-6-yl)ethanone] | > 10000 nM | > 10000 nM |
| CC(=O)c1c([C@@H]2C[C@H]3CC[C@@H](C2)N3C(=O)c2nnc[nH]2)nc2c(-c3ccc(-n4ccnc4)nc3)cnn2c1N [Compound 1.1.129, 1-(3-(6-(1H-imidazol-1-yl)pyridin-3-yl)-5-((1R,3s,5S)-8-(4H-1,2,4-triazole-3-carbonyl)-8-azabicyclo[3.2.1]octan-3-yl)-7-aminopyrazolo[1,5-a]pyrimidin-6-yl)ethanone] | > 10000 nM | > 10000 nM |
| CC(=O)c1c([C@@H]2C[C@H]3CC[C@@H](C2)N3C(=O)c2nnc(N)[nH]2)nc2c(-c3ccc(-n4cc(C)cn4)nc3)cnn2c1N [Compound 1.1.130, 1-(7-amino-5-((1R,3s,5S)-8-(5-amino-4H-1,2,4-triazole-3-carbonyl)-8-azabicyclo[3.2.1]octan-3-yl)-3-(6-(4-methyl-1H-pyrazol-1-yl)pyridin-3-yl)pyrazolo[1,5-a]pyrimidin-6-yl)ethanone] | 1 to 100 nM | 1 to 100 nM |
| CC(=O)c1c([C@@H]2C[C@H]3CC[C@@H](C2)N3C(=O)c2ccn[nH]2)nc2c(-c3ccc(-n4cc(C)cn4)nc3)cnn2c1N [Compound 1.1.131, 1-(5-((1R,3s,5S)-8-(1H-pyrazole-5-carbonyl)-8-azabicyclo[3.2.1]octan-3-yl)-7-amino-3-(6-(4-methyl-1H-pyrazol-1-yl)pyridin-3-yl)pyrazolo[1,5-a]pyrimidin-6-yl)ethanone] | 100 to 1000 nM | 100 to 1000 nM |
| CC(=O)c1c([C@@H]2C[C@H]3CC[C@@H](C2)N3C(=O)c2cc(N)n[nH]2)nc2c(-c3ccc(-n4cc(C)cn4)nc3)cnn2c1N [Compound 1.1.132, 1-(7-amino-5-((1R,3s,5S)-8-(3-amino-1H-pyrazole-5-carbonyl)-8-azabicyclo[3.2.1]octan-3-yl)-3-(6-(4-methyl-1H-pyrazol-1-yl)pyridin-3-yl)pyrazolo[1,5-a]pyrimidin-6-yl)ethanone] | 1 to 100 nM | 1 to 100 nM |
| CC(=O)c1c([C@@H]2C[C@H]3CC[C@@H](C2)N3C(=O)CO)nc2c(-c3ccc(-n4ccc(C)n4)nc3)cnn2c1N [Compound 1.1.133, 1-((1R,3s,5S)-3-(6-acetyl-7-amino-3-(6-(3-methyl-1H-pyrazol-1-yl)pyridin-3-yl)pyrazolo[1,5-a]pyrimidin-5-yl)-8-azabicyclo[3.2.1]octan-8-yl)-2-hydroxyethanone] | 100 to 1000 nM | 1000 to 10000 nM |
| CC(=O)c1c([C@@H]2C[C@H]3CC[C@@H](C2)N3C(=O)CO)nc2c(-c3ccc(-n4cc(C)cn4)nc3)cnn2c1N [Compound 1.1.134, 1-((1R,3s,5S)-3-(6-acetyl-7-amino-3-(6-(4-methyl-1H-pyrazol-1-yl)pyridin-3-yl)pyrazolo[1,5-a]pyrimidin-5-yl)-8-azabicyclo[3.2.1]octan-8-yl)-2-hydroxyethanone] | 1 to 100 nM | 100 to 1000 nM |
| CC(=O)c1c([C@@H]2C[C@H]3CC[C@@H](C2)N3C(=O)c2nnc[nH]2)nc2c(-c3ccc(-n4cc(C)cn4)nc3)cnn2c1N [Compound 1.1.135, 1-(5-((1R,3s,5S)-8-(4H-1,2,4-triazole-3-carbonyl)-8-azabicyclo[3.2.1]octan-3-yl)-7-amino-3-(6-(4-methyl-1H-pyrazol-1-yl)pyridin-3-yl)pyrazolo[1,5-a]pyrimidin-6-yl)ethanone] | 1 to 100 nM | 1 to 100 nM |
| CC(=O)c1c([C@@H]2C[C@H]3CC[C@@H](C2)N3C(=O)c2nnc[nH]2)nc2c(-c3ccc(-n4ccc(C)n4)nc3)cnn2c1N [Compound 1.1.136, 1-(5-((1R,3s,5S)-8-(4H-1,2,4-triazole-3-carbonyl)-8-azabicyclo[3.2.1]octan-3-yl)-7-amino-3-(6-(3-methyl-1H-pyrazol-1-yl)pyridin-3-yl)pyrazolo[1,5-a]pyrimidin-6-yl)ethanone] | 1 to 100 nM | 100 to 1000 nM |
| CCn1ccc(-c2ccc(-c3cnn4c(N)c(C(C)=O)c([C@@H]5C[C@H]6CC[C@@H](C5)N6C(=O)CO)nc34)cn2)n1 [Compound 1.1.137, 1-((1R,3s,5S)-3-(6-acetyl-7-amino-3-(6-(1-ethyl-1H-pyrazol-3-yl)pyridin-3-yl)pyrazolo[1,5-a]pyrimidin-5-yl)-8-azabicyclo[3.2.1]octan-8-yl)-2-hydroxyethanone] | 1 to 100 nM | 100 to 1000 nM |
| CCn1ccc(-c2ccc(-c3cnn4c(N)c(C(C)=O)c([C@@H]5C[C@H]6CC[C@@H](C5)N6C(=O)c5nnc[nH]5)nc34)cn2)n1 [Compound 1.1.138, 1-(5-((1R,3s,5S)-8-(4H-1,2,4-triazole-3-carbonyl)-8-azabicyclo[3.2.1]octan-3-yl)-7-amino-3-(6-(1-ethyl-1H-pyrazol-3-yl)pyridin-3-yl)pyrazolo[1,5-a]pyrimidin-6-yl)ethanone] | 1 to 100 nM | 1 to 100 nM |
| CC(=O)c1c([C@@H]2C[C@H]3CC[C@@H](C2)N3C(=O)c2n[nH]c(N(C)C)n2)nc2c(-c3ccc(-c4ccccc4)nc3)cnn2c1N [Compound 1.1.139, 1-(7-amino-5-((1R,3s,5S)-8-(5-(dimethylamino)-1H-1,2,4-triazole-3-carbonyl)-8-azabicyclo[3.2.1]octan-3-yl)-3-(6-phenylpyridin-3-yl)pyrazolo[1,5-a]pyrimidin-6-yl)ethanone] | 1000 to 10000 nM | 1000 to 10000 nM |
| CC(=O)c1c([C@@H]2C[C@H]3CC[C@@H](C2)N3C(=O)c2n[nH]c(N)n2)nc2c(-c3ccc(-c4ccccc4)nc3)cnn2c1N [Compound 1.1.140, 1-(7-amino-5-((1R,3s,5S)-8-(5-amino-1H-1,2,4-triazole-3-carbonyl)-8-azabicyclo[3.2.1]octan-3-yl)-3-(6-phenylpyridin-3-yl)pyrazolo[1,5-a]pyrimidin-6-yl)ethanone] | 1 to 100 nM | 1 to 100 nM |
| CC(=O)c1c([C@@H]2C[C@H]3CC[C@@H](C2)N3C(=O)c2cn[nH]c2N)nc2c(-c3ccc(-c4ccccc4)nc3)cnn2c1N [Compound 1.1.141, 1-(7-amino-5-((1R,3s,5S)-8-(5-amino-1H-pyrazole-4-carbonyl)-8-azabicyclo[3.2.1]octan-3-yl)-3-(6-phenylpyridin-3-yl)pyrazolo[1,5-a]pyrimidin-6-yl)ethanone] | 1 to 100 nM | 1 to 100 nM |
